Assay results taken from US6814951B1, “Acetaldehyde and malondialdehyde protein adducts as markers for alcohol liver disease” (The Board of Regents of the University of Nebraska, priority 1995, dated 2004).

Experiments:
[1] = biological target: affinity-purified polyclonal antibody specific for MAA adducts; test: Competitive ELISA: inhibition of MAA-specific antibody binding to solid-phase BSA-MAA; parameters: species or system rabbit; conditions: for 50% inhibitory concentration: bovine serum albumin-MAA as solid phase antigen
Description: A competitive ELISA was developed in order to detect the presence and to quantify the level of MDA/acetaldehyde modified proteins. Following the basic methodology developed by Roberts, et al, “A Sensitive Immunochemical Assay for Acetaminophen-Protein Adducts”, J Pharmacol Exp Ther, 1987; 241:527-533; Pumford, et al, “Immunochemical Quantitation of 3-(cystein-S-yl)Acetaminophen Adducts in Serum and Liver Proteins of Acetaminophen-Treated Mice”, J Pharmacol Exp Ther, 1989; 248:190-196, incorporated herein by reference, these assays were conducted by allowing a limiting amount of antibody to react with inhibitor, either standard or unknown, in the presence of excess solid phase antigen (MDA/acetaldehyde modified proteins). […] Biotinylated antibody (1/500 final dilution) was incubated with varying concentrations of test samples (standards or unknowns) overnight at 4° C., and then a 100 μl-aliquot of each sample was added to duplicate wells of the coated plates and incubated for 45 minutes at 37° C. After washing, 100 μl of alkaline phosphatase-conjugated streptavidin was added, and procedures as described above for the Direct ELISA were used to obtain optical density measurements. […] [formula]
where ODmax is OD in the absence of inhibitor, BKG is OD from nonspecific absorption of assay reagents and ODsample is the OD for a given concentration of standard or unknown sample.
An immunological assay, using an affinity-purified polyclonal antibody specific for MAA adducts, was employed to detect the presence of these adducts in livers of ethanol-fed rats. Since MAA adducts are likely composed of more than one distinct product, applicants proposed that 4-methyl-1,4-dihydropyridine-3,5-dicarbaldehyde (MDDC), derivatized to an ε-amino group of lysine, represents a structure for one of the major MAA-protein adducts. The purpose of this study was to characterize the antigen binding properties of the MAA specific antibody and determine whether MDDC epitopes are a major determinant of antibody recognition. A competitive ELISA, utilizing bovine serum albumin-MAA as the solid phase antigen, was used to test the binding specificity of the antibody.

[2] = biological target: T1, bovine serum albumin (BSA) (Bos taurus, UniProt P02769); test: Stable binding of acetaldehyde to proteins in the presence of MDA; assay type: biochemical; conditions: acetaldehyde 1 mM, 24 hours of incubation, 4-fold molar excess of MDA
T1 construct: purchased Sigma Chemical Co. (St. Louis, Mo.)
T1 sequence (P02769 25-607): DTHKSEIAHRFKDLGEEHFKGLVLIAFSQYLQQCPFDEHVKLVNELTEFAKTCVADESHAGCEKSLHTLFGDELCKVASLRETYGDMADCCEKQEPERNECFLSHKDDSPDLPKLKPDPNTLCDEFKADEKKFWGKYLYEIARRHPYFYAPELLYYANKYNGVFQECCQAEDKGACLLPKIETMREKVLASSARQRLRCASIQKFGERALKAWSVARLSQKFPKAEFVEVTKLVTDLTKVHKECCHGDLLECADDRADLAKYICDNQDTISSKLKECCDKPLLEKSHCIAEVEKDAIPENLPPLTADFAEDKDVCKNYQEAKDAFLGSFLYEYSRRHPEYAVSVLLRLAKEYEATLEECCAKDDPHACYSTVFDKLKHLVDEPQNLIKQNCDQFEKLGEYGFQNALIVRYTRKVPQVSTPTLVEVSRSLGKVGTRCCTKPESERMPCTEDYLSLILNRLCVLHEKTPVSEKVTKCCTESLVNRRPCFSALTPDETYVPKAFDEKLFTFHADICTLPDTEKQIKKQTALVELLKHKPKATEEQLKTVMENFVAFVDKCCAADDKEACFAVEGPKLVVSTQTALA
Procedure: Concentrations of acetaldehyde (0.1 mM or 1.0 mM) were incubated with various protein solutions in the absence and presence of varying concentrations of MDA. Incubations were conducted in phosphate buffer (0.1 M, pH 7.4) at 37° C. in polypropylene vessels that were sealed to minimize the loss of volatile radioactivity. The reactions were performed under nitrogen gas in the dark. During a 72-hr incubation period, aliquots were removed for stable acetaldehyde binding determinations and fluorescence measurements as previously described. Hoffmann, “Reaction of Acetaldehyde with Proteins: Formation of Stable Fluorescent Adducts”, Alcohol Clin Exp Res, 1993; 17:69-74. Briefly, postincubation, free and unstable-bound acetaldehyde were separated by exhaustive dialysis against phosphate buffer for 24 hours at 4° C. Radioactivity was then measured in the retenate and represented stably bound acetaldehyde. Results are expressed as nmoles acetaldehyde bound per mg of protein. Fluorescence measurements were obtained on post-dialysis samples using a Perkin Elmer LS-5B spectrophotofluorometer attached to a Perkin Elmer GP-100 graphics printer.
When acetaldehyde (1 mM) was incubated with bovine serum albumin (BSA) in the presence of varying concentrations of MDA over a 72-hour time course, MDA markedly stimulated the binding of acetaldehyde to BSA in a concentration-dependent manner. […]

Balc/c mice = test: Immunization of mice with BSA or BSA-MAA, antiserum titration by ELISA; assay type: in vivo; conditions: antiserum tested on MSA and MSA-MAA
Procedure: The purpose of this study was to determine how modification of a soluble carrier protein with the MAA adduct alters the humoral immune response. Balc/c mice were immunized weekly by i.p. injection with 100 μg of either bovine serum albumin unmodified (BSA) or modified with MAA (BSA-MAA). Titration of antiserum was performed by ELISA on wells coated with either BSA, BSA-MAA, mouse albumin (MSA) and MSA-MAA. […] In mice immunized with lower concentrations of BSA-MAA, antibody titers decreased in a dose dependent manner to both BSA and BSA-MAA (>1:3200 at 100 μg to 1:2000 at 25 μg).

`CCCCCCN1C=C(C=O)C(C)C(C=O)=C1` [1-hexyl-MDDC] showed a 50% inhibitory concentration [1] of 4 pmoles/well.

Molecule `CC1C(C=O)=CNC=C1C=O` [1-hydrogen MDDC, 4-methyl-1,4-dihydropyridine-3,5-dicarbaldehyde] has a 50% inhibitory concentration [1] of 240 pmoles/well.

In the case of `CC1C(C=O)=CN(C)C=C1C=O` [1-methyl MDDC], the 50% inhibitory concentration [1] was 14 pmoles/well.

`O=CCC=O` [MDA, malondialdehyde] was tested, and the “stimulation of acetaldehyde binding to BSA” value [2] was 13 fold.

For `NC(=O)C1=CN([C@@H]2O[C@H](COP(=O)(O)OP(=O)(O)OC[C@H]3O[C@@H](n4cnc5c(N)ncnc54)[C@H](O)[C@@H]3O)[C@@H](O)[C@H]2O)C=CC1` [NADH, reference compound], the “inhibition of antibody binding” value [1] was “negligible inhibitions”.

In the case of `Cc1ncc(CO)c(C=O)c1O` [pyridoxal, reference compound], the “inhibition of antibody binding” value [1] was “negligible inhibitions”.

“BSA-MAA: bovine serum albumin modified with MAA (malondialdehyde-acetaldehyde adduct)” was tested, and the “antibody titer to the MAA adduct (tested on MSA-MAA)” value (Balc/c mice) was “significant antibody titer” and the “response to the autologous protein (MSA)” value (Balc/c mice) was “no response”.
